US8454857B2, “Polymerizable liquid crystal compounds, polymerizable liquid crystal compositions, liquid crystalline polymers and optically anisotropic materials” (Zeon Corporation, priority 2008, dated 2013)

What was measured:
Assay type in all cases: physicochemical
[1] = Measurement of optical anisotropy (value Δn) of cured polymer film; details: cured polymer film 4 μm, 546 nm, Δn=Re/d
Description: 100 parts of the polymerizable liquid crystal compound (1 to 3) was dissolved in 233 parts of cyclopentanone. 2.7 parts of a photoinitiator (“Irgacure 907” manufactured by Ciba Specialty Chemicals Co., Ltd.) was homogenously dissolved in the solution. The resulting solution was applied to a glass substrate provided with a rubbed polyimide alignment film using a bar coater (“SA-203” manufactured by Tester Sangyo Co., Ltd., Rod No. 4, shaft diameter: 12.7 mm). After drying the resulting film at 100° C. for 5 minutes on a hot plate, ultraviolet rays (1000 mJ/cm^2) were applied to the film from a mercury lamp to obtain a cured polymer film having a thickness of 4 μm.
The extinction position (θ) of the cured film was measured using an optical microscope (“ECLIPSE E600POL (transmission/reflection type)” manufactured by Nikon Corporation, equipped with a sensitive tint plate, a λ/4 wave plate, a Sénarmont compensator, and a GIF filter (546 nm). The retardation (Re) was calculated by “Re=λ(546 nm)×θ/180”. The value Δn was calculated by “Δn=Re/d” (where, d is the thickness of the liquid crystal layer). The calculation results are shown in Table 1.

[2] = Mutual solubility at 23° C. by naked eye observation when forming the cured film; parameters: key: A case where turbidity was not observed was evaluated as “Good”; a case where turbidity was observed was evaluated as “Bad”; details: naked eye observation of turbidity
Description: 100 parts of the polymerizable liquid crystal compound (1 to 3) was dissolved in 153 parts of cyclopentanone. After the addition of 3.3 parts of a photoinitiator (“Irgacure 379” manufactured by Ciba Specialty Chemicals Co., Ltd.), 6 parts of a polymerizable chiral compound (compound shown by the formula (X)), and 11.6 parts of a surfactant (“KH-40” manufactured by AGC Seimi Chemical Co., Ltd.; 1 wt % cyclopentanone solution), the components were homogenously dissolved to prepare a polymerizable liquid crystal composition solution.
When forming the cured film of the compound, the mutual solubility of the compound at 23° C. was evaluated by naked eye observation. A case where turbidity was not observed was evaluated as “Good”, and a case where turbidity was observed was evaluated as “Bad”.

[3] = Measurement of phase transition temperature (polarizing optical microscope, heated 30° C. to 300° C. and cooled)
Description: 10 mg of the polymerizable liquid crystal compound (the polymerizable liquid crystal compounds 1 and 2 obtained in Examples 1 and 2, and a polymerizable liquid crystal compound shown by the following formula (3) (“LC242” manufactured by BASF) (Comparative Example 1) (hereinafter referred to as “polymerizable liquid crystal compound 3”)) was weighed, and placed between two glass substrates provided with a rubbed polyimide alignment film.
The substrates were heated from 30° C. to 300° C. on a hot plate, and then cooled to 30° C. A change in structure during a change in temperature was observed using a polarizing optical microscope (“ECLIPSE LV100POL” manufactured by Nikon Corporation) to determine the phase transition temperature.
In Table 1, “C” indicates “Crystal”, “N” indicates “Nematic”, and “I” indicates “Isotropic”.

[4] = Solubility in cyclopentanone at 60° C., 40 wt % solution; parameters: key: a case where the compound was dissolved in cyclopentanone is indicated by “Good”; a case where the compound was not dissolved in cyclopentanone is indicated by “Bad”; details: compound concentration 40 wt %
Description: The solubility of the compound at 60° C. was evaluated when preparing a solution having a compound concentration of 40 wt %. In Table 1, a case where the compound was dissolved in cyclopentanone is indicated by “Good”, and a case where the compound was not dissolved in cyclopentanone is indicated by “Bad”.

With `C=CC(=O)OCCCCOC(=O)Oc1ccc(C(=O)Oc2ccc(OC(=O)c3ccc(OC(=O)OCCCCOC(=O)C=C)cc3)c(C)c2)cc1` [Polymerizable liquid crystal compound 3] the Δn [1] was 0.142, the Mutual solubility [2] was “Good” and the “Liquid crystallinity temperature range” value ([3]; heated from 30° C. to 300° C., then cooled to 30° C., between glass substrates with rubbed polyimide alignment film) was 63 °C. For the same compound, the “liquid crystallinity temperature range (in words)” value ([3]; summary of Table 1) was “liquid crystallinity within a narrow temperature range” and the Solubility [4] was “Good”.
